Key:
[1] = Measurement of maximum plasma level (Cmax) and bioavailability (BA); type: in vivo; details: male, Crl:CD(SD), po; rat plasma; orally administered solution 10 mg/kg, fasting
Experimental: Measurement of Maximum Plasma Level (CMax) and Bioavailability (BA)
A test compound is weighed, dissolved in Solutol (trade name; manufactured by BASF-TAKEDA Vitamins Ltd.)/propylene glycol=7/3 which is heated to 60° C. and adjusted to 20 mg/mL; thereafter, the test compound is diluted by 10 times with distilled water for injection, and further diluted by 2 times with saline solution, by which intravenously administered solution is eventually made. The test compound is weighed, dissolved in Solutol (trade name; manufactured by BASF-TAKEDA Vitamins Ltd.)/propylene glycol=7/3 which is heated to 60° C., and adjusted to 20 mg/mL; thereafter, the test compound is diluted by 10 times with distilled water for injection, by which orally administered solution is eventually made. Intravenous administration is performed by rapid single administration (n=3) of intravenously administered solution (1 mg/kg) from the tail vein of Crl:CD(SD) Rat (male, manufactured by CHARLES RIVER LABORATORIES JAPAN, INC). Oral administration is performed by forced administration (n=3) of orally administered solution (10 mg/kg) into the stomach of Crl:CD(SD) Rat (male, manufactured by CHARLES RIVER LABORATORIES JAPAN, INC.) using a sonde. The administration is conducted under fasting conditions; water is freely ingested. A 0.35 mL blood sample is taken from cervical vein by using Heparinized Syringe at 15 minutes, 30 minutes, 1 hour, 2 hours, 4 hours, 6 hours, 8 hours, and 24 hours after administration. The obtained blood is stored in ice, and after centrifugation at 12,000 rpm for 5 minutes, blood plasma is fractionated. The blood plasma is preserved at a temperature of −80° C. The sample of blood plasma preserved at a temperature of −80° C. is dissolved; inner standard solution (100 μL) and acetonitrile (2 mL) are added to the blood plasma sample 100 μL and stirred; and the sample is centrifuged at 2,500 rpm for 10 minutes. After the supernatant is evaporated to dryness by means of a centrifugal concentrator, 67% dimethyl sulfoxide solution (150 μL) is added to the residue and dissolves them again; and 20 μL of the solution is analyzed by means of LC/MS/MS.
The analysis by means of LC/MS/MS should be performed, for example, under the following conditions:
Measurement device: Waters 2795 (manufactured by Waters Corporation)
Analytical column: Unison UK-C18, 3.0 μm particle size, 2.0 mm×30 mm (manufactured by Imtakt Corporation)
Analytical column temperature: Room temperature
Moving bed: 5 mM IPC-PFAA-7 solution/acetonitrile (9/1→1/9)
Measurement device: Quatro micro API (manufactured by Micromass Communications Inc.)
Method for ionization: ES+
Capillary electric potential: 3.30 kV
Source temperature: 120° C.
Desolvation temperature: 350° C.
The monitor ion which was suitable for each sample was selected.
The concentration transition in the rat blood plasma of the test compound is analyzed by means of non-compartment analysis method by using WinNonlin 4.0.1 (manufactured by Pharsight Corporation) to calculate the maximum blood concentration Cmax and the area under the blood concentration curve AUC.
BA is calculated by means of the following formula: BA(%)={(AUCp.o./Dosep.o.)/(AUCi.v./Dosei.v.)}×100
AUCp.o.: AUC in oral administration
Dosep.o.: Amount of the drug orally administered
AUCi.v.: AUC in intravenous administration
Dosei.v.: Amount of the drug intravenously administered

[2] = tested on: CHL/IU (cell line derived from a Chinese hamster lung); test: Phospholipidosis detecting system using fluorescent labeling phospholipid analog (NBD-PE); type: cell-based; details: compound dose: 50 μM; for The rate of increase of phopholipid accumulation (%): CHL/IU cells, about 24 hours, relative to NBD-PE control
Experimental: Investigation with a Phospholipidosis Detecting System Using Fluorescent Labeling Phospholipidosis Analog (i) Phospholipid Accumulation Measurement 100 μL/well as required (1 dose 2 wells) of cell suspension of CHL/IU (cell line derived from a Chinese hamster lung) adjusted by MEM (7×10^4 cells/mL) adjusted by MEM (minimum essential medium) culture medium was added to a 96-well plate (96-well clear-bottom plate), and cultured for about 24 hours. After culture, the supernatant of the 96-well plate was removed, and the 100 μL/well compounds of each concentration dissolved and suspended in a minimum essential medium (MEM) including 25 μmol/L nitrobenzoxadiazole dipalmitoyl phosphatidylethanolamine (NBD-PE) (hereinafter abbreviated as a NPD-PE medium) were added and treated for about 24 hours. The treatment concentrations of each compound were set to be 6.25, 12.5, 25, 50 and 100 μmol/L. The positive control substance was set to be amiodarone hydrochloride, and the treatment concentrations were set to be 1.25, 2.5, 5, 10 and 20 μmol/L. In addition, 5 untreated controls (only MEM) and 5 NBD-PE controls (made by means of adding a 1/100 amount of DMSO to the NBD-PE culture medium) were set per compound, and cultured in the same manner. After finishing the culture, the cultures were washed twice with Phosphate buffered saline (hereinafter abbreviated as PBS) (−) 100 μL/well, and the MEM (100 μL) was added to all of the treatment wells including 2 empty wells for WST-1 background controls and cultured for about a half hour. The fluorescence intensities of each well were measured by using a microplate reader (manufactured by Molecular Devices Inc., SPECTRA max M2; the excitation wavelength 485 nm/the fluorescence wavelength 535 nm). (ii) Analysis Using the average values of each dose×2 wells, a phospholipid increase rate (%) to the NBD-PE control was calculated by using the following calculating formula: Phospholipid increase rate (%)=100×{(test article fluorescence intensity−untreated control fluorescence intensity)/(NBD-PE control fluorescence intensity−untreated control fluorescence intensity (iii) Cytotoxicity Assay The 96-well plate measured in the phospholipid accumulation measurement was measured by means of Plate Reader (manufactured by Molecular Devices Inc., SPECTRA max M2) with the main wavelength of 450 nm and the correct wavelength of 690 nm to calculate a Pre value. An amount of 5 μL/well of Premix WS T-1 was added to each of the 96 hole plates by which Pre measurement was conducted. After culture for 2 to 4 hours, the 96-well plate was measured as well as the Pre measurement to calculate an Aft value. Then, the background control value was subtracted from the each measured value. A value which was calculated by subtracting the Pre value from the Aft value was used, then the cell growth rate (%) was calculated by using the following calculating formula: Cell growth rate (%)=100×{(test article OD)/(NBD-PE control OD)} (iv) Determination A test dose that indicated value of equal to or more than 25% of the maximum phospholipid accumulation increase rate of amiodarone which was the positive control was determined as positive. In addition, the dose whose cell growth rate was equal to or less than 50% in the cytotoxicity assay was not used for determination of existence or nonexistence of a phospholipidosis inductive effect.

Compound | Cmax [1] | Judgement (phospholipidosis inductive effect) [2] | The rate of increase of phopholipid accumulation (%) [2]
CC(C)CN1CCC2(CCN(Cc3ccc(C(=O)N(Cc4ncc[nH]4)Cc4ncc[nH]4)cc3)CC2)C1 [Example 8 (113), N,N-bis(1H-imidazol-2-ylmethyl)-4-[(2-isobutyl-2,8-diazaspiro[4.5]dec-8-yl)methyl]benzamide] | 80 ng/mL | negative | 10%
CC(C)(C)CN1CCC2(CC1)CCN(C(=O)Cc1ccc(CN(Cc3ncc[nH]3)Cc3ncc[nH]3)cc1)C2 [Example 40 (68), 1-(4-{2-[8-(2,2-dimethylpropyl)-2,8-diazaspiro[4.5]dec-2-yl]-2-oxoethyl}phenyl)-N,N-bis(1H-imidazol-2-ylmethyl)methanamine] | 175 ng/mL | negative | 18%
CCC(CC)N1CCC2(CCN(C(=O)c3ccc(CN(Cc4ncc[nH]4)Cc4nccn4C)cc3)C2)CC1 [Example 40 (72), 1-(4-{[8-(1-ethylpropyl)-2,8-diazaspiro[4.5]dec-2-yl]carbonyl}phenyl)-N-(1H-imidazol-2-ylmethyl)-N-[(1-methyl-1H-imidazol-2-yl)methyl]methanamine] | 157 ng/mL | negative | 16%
O=C(CC(=O)N1CCC2(CCN(C3CCCCC3)CC2)C1)N1CCC(N(Cc2ncc[nH]2)Cc2ncc[nH]2)CC1 [Example 65 (4), 1-[3-(8-cyclohexyl-2,8-diazaspiro[4.5]dec-2-yl)-3-oxopropanoyl]-N,N-bis(1H-imidazol-2-ylmethyl)-4-piperidinamine] | 420 ng/mL | negative | 12%
